Reference: PMC7607848 (Journal of medicinal chemistry, 2018)
One block for each compound: values may come before it.

How the values were obtained:
[1] = tested on: alcohol-induced liver steatosis; details: past studies; cited from earlier work
[2] = tested on: CP55940-induced hypothermia (centrally located CB1 receptors); details: rodents; cited from earlier work
hCB1 [3] = biological target: T1, hCB1 (Homo sapiens, UniProt P21554)
hCB1 [4] = biological target: T1, hCB1; assay: calcium-mobilization inverse-agonist assay in CHO-hCB1 cells; details: neutral antagonist or inverse agonist

T1 sequence (P21554 whole entry): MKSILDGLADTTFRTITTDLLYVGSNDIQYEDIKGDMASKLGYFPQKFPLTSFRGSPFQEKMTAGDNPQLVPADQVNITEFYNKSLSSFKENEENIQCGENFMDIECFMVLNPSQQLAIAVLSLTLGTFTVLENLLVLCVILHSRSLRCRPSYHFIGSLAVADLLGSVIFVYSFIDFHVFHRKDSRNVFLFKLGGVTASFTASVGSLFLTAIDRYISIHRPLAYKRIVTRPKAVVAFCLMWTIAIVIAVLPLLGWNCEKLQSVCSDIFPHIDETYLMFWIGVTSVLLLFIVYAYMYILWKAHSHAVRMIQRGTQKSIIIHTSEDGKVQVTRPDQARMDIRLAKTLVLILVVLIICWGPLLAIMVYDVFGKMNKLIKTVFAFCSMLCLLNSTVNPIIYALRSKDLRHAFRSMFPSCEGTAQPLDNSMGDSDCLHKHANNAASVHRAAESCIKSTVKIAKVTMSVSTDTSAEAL

SMILES: Cc1c(C(=O)NN2CCCCC2)nn(-c2ccc(Cl)cc2Cl)c1-c1ccc(Cl)cc1 [Compound 1, Rimonabant]
reduction of alcoholic steatosis (AS) [1]: effective at reducing AS

SMILES: CCNC1(C(N)=O)CCN(c2ncnc3c2nc(-c2ccccc2Cl)n3-c2ccc(Cl)cc2)CC1 [Compound 2, otenabant]
blocking of CP55940-induced reduction of body temperature [2]: known to block this effect

SMILES: N#CC(c1ccccc1)N1CCN(c2ncnc3c2nc(-c2ccccc2Cl)n3-c2ccc(Cl)cc2)CC1 (stereo not shown) [Compound 21, {4-[8-(2-Chlorophenyl)-9-(4-chlorophenyl)-9H-purin-6-yl]-piperazin-1-yl}(phenyl)acetonitrile]
selectivity for hCB1 over hCB2 (binding assays) (hCB1 [3]): ~ 60 fold

functional mode at hCB1 (hCB1 [4]): inverse agonist
SMILES: Clc1ccc(-n2c(-c3ccccc3Cl)nc3c(N4CCN(Cc5ccccc5Cl)CC4)ncnc32)cc1 [Compound 25, 6-[4-(2-Chlorobenzyl)piperazin-1-yl]-8-(2-chlorophenyl)-9-(4-chlorophenyl)-9H-purine]
